Results taken from paper PMC6001238, “Iterative Chemical Engineering of Vancomycin Leads to Novel Vancomycin Analogs With a High in Vitro Therapeutic Index” (Frontiers in Microbiology, 2018).
In brackets after ≈: the same amount, converted by molar mass. Read-outs that look alike come from different tables or passages of the source.

Experiments:
E. faecalis VSE 1 = assay: MIC, broth microdilution, vancomycin-sensitive E. faecalis (VSE 1); type: cell-based, Enterococcus faecalis
Method in brief: (§1)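 Serial dilutions in broth, set up per CLSI guidance, gave the MIC. Where noted, test analogues or comparator antibiotics were combined with vancomycin at 10 μM final. Controls: ultrapure water, broth without inoculum.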

E. faecalis VRE 6 = assay: MIC, broth microdilution, vancomycin-resistant E. faecalis VRE 6 (VanA); type: cell-based, Enterococcus faecalis
Method in brief: as §1

E. faecalis VRE 53 = assay: MIC, broth microdilution, vancomycin-resistant E. faecalis VRE 53 (VanA); type: cell-based, Enterococcus faecalis
Method in brief: as §1

E. faecalis VRE 29 = assay: MIC, broth microdilution, vancomycin-resistant E. faecalis VRE 29 (VanA); type: cell-based, Enterococcus faecalis
Method in brief: as §1

E. faecalis VRE 37 = assay: MIC, broth microdilution, vancomycin-resistant E. faecalis VRE 37 (VanA); type: cell-based, Enterococcus faecalis
Method in brief: as §1

[1] = tested on: Murine leukemia (L1210) cells; assay: Cytostatic activity, L1210 cell proliferation; type: cell-based; conditions: Mus musculus, L1210, 48 h; mean ± SD of three experiments; highest concentration tested 250 µM; 2 days; read-out: Toxicity (IC50) L1210
Method in brief: (§2)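 Readout: Coulter cell number after drug exposure at 37°C. Durations differ by line (L1210 2 days; CEM 3 days; HeLa 4 days). Stock suspension 300,000–500,000 cells/mL, diluted by mixing with compound. Endpoint: IC50 vs negative control.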

[2] = tested on: human T-lymphocyte (CEM) cells; assay: Cytostatic activity, CEM cell proliferation; type: cell-based; conditions: Homo sapiens, CCRF-CEM, 72 h; mean ± SD of three experiments; highest concentration tested 250 µM; 3 days; read-out: Toxicity (IC50) CEM
Method in brief: as §2

[3] = tested on: human cervix carcinoma (HeLa) cells; assay: Cytostatic activity, HeLa cell proliferation; type: cell-based; conditions: Homo sapiens, HeLa, 96 h; mean ± SD of three experiments; highest concentration tested 250 µM; 4 days; read-out: Toxicity (IC50) HeLa
Method in brief: as §2

[4] = tested on: L1210, CEM and HeLa cell lines; assay: Cytostatic activity, average or summary over L1210, CEM and HeLa; type: cell-based
Method in brief: as §2

[5] = tested on: S. aureus VSSA (ATCC 6538); assay: MIC, broth microdilution, vancomycin-sensitive S. aureus (VSSA/MSSA, ATCC 6538); type: cell-based, Staphylococcus aureus
Method in brief: as §1

S. aureus VISA/HIP5827 = assay: MIC, broth microdilution, vancomycin-intermediate S. aureus VISA HIP5827; type: cell-based, Staphylococcus aureus
Method in brief: as §1

S. aureus VRSA = assay: MIC, broth microdilution, vancomycin-resistant S. aureus (VRSA); type: cell-based, Staphylococcus aureus
Method in brief: as §1

MRSA KS2 = assay: MIC, broth microdilution, MRSA KS2; type: cell-based, Staphylococcus aureus
Method in brief: as §1

MRSA KS6 = assay: MIC, broth microdilution, MRSA KS6; type: cell-based, Staphylococcus aureus
Method in brief: as §1

MRSA KS89 = assay: MIC, broth microdilution, MRSA KS89; type: cell-based, Staphylococcus aureus
Method in brief: as §1

MRSA KS1 = assay: MIC, broth microdilution, MRSA KS1; type: cell-based, Staphylococcus aureus
Method in brief: as §1

33 clinical VRE isolates = assay: MIC against a set of 33 clinical VRE isolates (range, MIC50, TI); type: cell-based, Enterococcus faecalis
Method: (§3) The minimum inhibitory concentration (MIC) was determined using the broth microdilution method according to the antimicrobial susceptibility testing standards of the clinical and laboratory standards institute ([Clinical and Laboratory Standards Institute [CLSI], 2012]). Ultrapure water and non-inoculated broth were used as controls. In one case, a final concentration of 10 μM vancomycin was included with the vancomycin analog or control antibiotic.

[6] = tested on: 24 clinical MRSA isolates; assay: MIC against a set of 24 clinical MRSA isolates (range, MIC50, TI); type: cell-based, Staphylococcus aureus
Method: as §3

VE 148 (VanB) = assay: MIC, VanB-type VRE strain VE 148; type: cell-based, Enterococcus; conditions: Enterococcus; VE 148, VanB; read-out: MIC
Method: as §3

VE 149 (VanB) = assay: MIC, VanB-type VRE strain VE 149; type: cell-based, Enterococcus; conditions: Enterococcus; VE 149, VanB; read-out: MIC
Method: as §3

VE 150 (VanB) = assay: MIC, VanB-type VRE strain VE 150; type: cell-based, Enterococcus; conditions: Enterococcus; VE 150, VanB; read-out: MIC
Method: as §3

VE 152 (VanB) = assay: MIC, VanB-type VRE strain VE 152; type: cell-based, Enterococcus; conditions: Enterococcus; VE 152, VanB; read-out: MIC
Method: as §3

VE 157 (VanB) = assay: MIC, VanB-type VRE strain VE 157; type: cell-based, Enterococcus; conditions: Enterococcus; VE 157, VanB; read-out: MIC
Method: as §3

VE 82 (VanC1) = assay: MIC, VanC1-type VRE strain VE 82; type: cell-based, Enterococcus gallinarum; conditions: Enterococcus gallinarum; VE 82, VanC1; read-out: MIC
Method: as §3

MRSA [7] = assay: Minimum bactericidal concentration against MRSA; type: cell-based, Staphylococcus aureus
Method: Plates were incubated overnight at 37°C and colony growth was inspected.

MRSA [8] = assay: Time-kill curves, MRSA at 4x MIC; type: cell-based, Staphylococcus aureus; conditions: 1-24 h
Method: Time-kill curves were determined based on the CLSI guidelines ([Clinical and Laboratory Standards Institute [CLSI], 1999]). Single colonies grown overnight at 37°C were resuspended in Ca^2+-adjusted (0.05 mg/mL) Mueller Hinton broth up to an optical density (625 nm) of 0.08–00.10 (corresponding to the 0.5 McFarland standard), followed by a 10-fold dilution in the same broth. Subsequently, 0.2 mL inoculum was added to 1.7 mL Ca^2+-adjusted (0.05 mg/mL) Mueller Hinton broth, followed by addition of the antibacterial compound (0.1 mL). The final concentration of the antibacterial compound corresponded to the 4x MIC value for that compound. For the antibiotic-free control, the compound was replaced by an equal volume of ultrapure water. The final inoculum concentration was approximately 10^6 CFU/mL. The cultures were continuously shaken at 37°C. After 1, 2, 4, 6, 8, and 24 h, a 0.1 mL aliquot was removed, serially diluted in cold 0.9% w/v NaCl and plated on BHI (VRE) and LB (MRSA) agar plates. Plates were incubated overnight at 37°C and colonies were counted.

In the case of CC(=O)NC[C@H]1CN(c2ccc(N3CCOCC3)c(F)c2)C(=O)O1 [Linezolid, reference compound], the MIC (E. faecalis VSE 1; VSE1, Enterococcus faecalis VSE 1 (vancomycin-sensitive), read-out: MIC) is reported as > 3.13 µM, the “MIC-fold improvement vs. vancomycin” value (E. faecalis VSE 1; VSE 1, ratio of MIC of vancomycin and MIC of analogue) is reported as <0.5 and the MIC (E. faecalis VRE 6; Enterococcus faecalis VRE 6 (vancomycin-resistant), read-out: MIC) is reported as 12.5 µM (≈ 4.22 µg/mL). For the same compound, the “MIC-fold improvement vs. vancomycin” value (E. faecalis VRE 6; VRE 6, ratio of MIC of vancomycin and MIC of analogue) was 16, the MIC (E. faecalis VRE 53; Enterococcus faecalis, VRE) was 6.25 µM (≈ 2.11 µg/mL) and the “MIC-fold improvement vs. vancomycin” value (E. faecalis VRE 53; VRE 53, ratio of MIC of vancomycin and MIC of analogue) was 64. The MIC (E. faecalis VRE 29; Enterococcus faecalis, VRE) was 6.25 µM (≈ 2.11 µg/mL), the “MIC-fold improvement vs. vancomycin” value (E. faecalis VRE 29; VRE 29, ratio of MIC of vancomycin and MIC of analogue) was 64 and the MIC (E. faecalis VRE 37; Enterococcus faecalis, VRE) was 6.25 µM (≈ 2.11 µg/mL). The “MIC-fold improvement vs. vancomycin” value (E. faecalis VRE 37; VRE 37, ratio of MIC of vancomycin and MIC of analogue) was 64, the IC50 [1] was 157 ± 7 µM and the IC50 [2] was > 250 µM. The IC50 [3] was 216 ± 48 µM, the IC50 ([4]; average IC50 used for TI in Table S5, >250 entered as 250, read-out: IC50) was 208 µM and the IC50 ([4]; average of L1210, CEM and HeLa, read-out: Toxicity (IC50) Average) was 208 µM. For the same compound, the MIC ([5]; ATCC6538, Staphylococcus aureus VSSA, read-out: MIC) was > 3.13 µM, the “MIC-fold improvement vs. vancomycin” value ([5]; VSSA, ratio of MIC of vancomycin and MIC of analogue) was <0.2 and the MIC (S. aureus VISA/HIP5827; Staphylococcus aureus, VISA) was 3.13 µM (≈ 1.06 µg/mL). The “MIC-fold improvement vs. vancomycin” value (S. aureus VISA/HIP5827; VISA/HIP5827, ratio of MIC of vancomycin and MIC of analogue) was 2, the MIC (S. aureus VRSA; Staphylococcus aureus VRSA) was 6.25 µM (≈ 2.11 µg/mL) and the “MIC-fold improvement vs. vancomycin” value (S. aureus VRSA; VRSA, ratio of MIC of vancomycin and MIC of analogue) was 16. For the same compound, the “MIC-fold improvement vs. vancomycin” value (MRSA KS2; MRSA KS2, ratio of MIC of vancomycin and MIC of analogue) was 0.1, the MIC (MRSA KS2; Staphylococcus aureus, MRSA) was 6.25 µM (≈ 2.11 µg/mL) and the “MIC-fold improvement vs. vancomycin” value (MRSA KS6; MRSA KS6, ratio of MIC of vancomycin and MIC of analogue) was 0.1. For the same compound, the MIC (MRSA KS6; Staphylococcus aureus, MRSA) was 6.25 µM (≈ 2.11 µg/mL), the “MIC-fold improvement vs. vancomycin” value (MRSA KS89; MRSA KS8 (head; KS89 in title), ratio of MIC of vancomycin and MIC of analogue) was 0.1 and the MIC (MRSA KS89; Staphylococcus aureus, MRSA) was 6.25 µM (≈ 2.11 µg/mL). For the same compound, the “MIC-fold improvement vs. vancomycin” value (MRSA KS1; MRSA KS1, ratio of MIC of vancomycin and MIC of analogue) was 0.05, the MIC (MRSA KS1; Staphylococcus aureus MRSA KS1, read-out: MIC) was 12.5 µM (≈ 4.22 µg/mL) and the “MIC Range” value (33 clinical VRE isolates; 33 clinical VRE isolates) was 3.13 to 50 µM. For the same compound, the MIC50 (33 clinical VRE isolates; Enterococcus, median MIC, 33 clinical VRE isolates, read-out: MIC50) was 6.25 µM (≈ 2.11 µg/mL), the “TI (IC50/MIC50)” value (33 clinical VRE isolates; in vitro therapeutic index, VRE) was 33 and the “MIC Range” value ([6]; 24 clinical MRSA isolates) was 6.25 to 25 µM. For the same compound, the MIC50 ([6]; Staphylococcus aureus, median MIC, 24 clinical MRSA isolates, read-out: MIC50) was 25 µM (≈ 8.43 µg/mL), the “TI (IC50/MIC50)” value ([6]; in vitro therapeutic index, MRSA) was 8 and the MIC (VE 148 (VanB)) was 12.5 µM (≈ 4.22 µg/mL). For the same compound, the MIC (VE 149 (VanB)) was 12.5 µM (≈ 4.22 µg/mL), the MIC (VE 150 (VanB)) was 12.5 µM (≈ 4.22 µg/mL) and the MIC (VE 152 (VanB)) was 12.5 µM (≈ 4.22 µg/mL). The MIC (VE 157 (VanB)) was 12.5 µM (≈ 4.22 µg/mL), the MIC (VE 82 (VanC1)) was 12.5 µM (≈ 4.22 µg/mL) and the “MBC relative to MIC” value (MRSA [7]) was “more than four times higher than the corresponding MIC”. The time-kill curve character (MRSA [8]) was “typical bacteriostatic time-kill curve”.
